ChEMBL document CHEMBL4402574, “Discovery of Acylsulfonohydrazide-Derived Inhibitors of the Lysine Acetyltransferase, KAT6A, as Potent Senescence-Inducing Anti-Cancer Agents” (J Med Chem, 2020)
In brackets after ≈: the same amount, converted by molar mass.

How the values were obtained:
[1] = Kinetic solubility of the compound in phosphate buffer at pH 6.5 by nephelometry; assay type: physicochemical; conditions: read-out: Kinetic_solubility
[2] = Kinetic solubility of the compound in 0.01 M HCl at pH 2 by nephelometry; assay type: physicochemical; conditions: read-out: Kinetic_solubility
[3] = Apparent permeability across apical to basolateral side in human Caco2 cells measured over 90 mins by LC-MS/MS analysis; assay type: ADME, cell-based; conditions: Caco-2
[4] = Cysteine reactivity assessed as induction of confirmational change in 13C-methyl-labeled La antigen at 400 uM incubated for 1 hr at 37 degC followed by incubation at 30 degC for 15 mins in presence of DTT by ALARM NMR assay
[5] = Cysteine reactivity assessed as induction of confirmational change in 13C-methyl-labeled La antigen at 400 uM incubated for 1 hr at 37 degC followed by incubation at 30 degC for 15 mins in absence of DTT by ALARM NMR assay
[6] = Tmax in Swiss mouse at 30 mg/kg, ip by UPLC analysis; assay type: ADME, organism-based; conditions: in vivo
[7] = Cmax in Swiss mouse at 30 mg/kg, ip by UPLC analysis; assay type: ADME, organism-based; design: dose 30 mg/kg, route intraperitoneal; conditions: in vivo
[8] = Drug excretion in Sprague-Dawley rat urine at […], iv; assay type: ADME, organism-based; conditions: in vivo, BLD = below limit of detection
[9] = Cmax in Sprague-Dawley rat at 33 mg/kg, po administered as suspension using HPMC formulation; assay type: ADME, organism-based; design: dose 33 mg/kg, route oral; conditions: in vivo
[10] = Tmax in Sprague-Dawley rat at 31 mg/kg, po using PEG400/Solutol HS-15/water formulation; assay type: ADME, organism-based; conditions: in vivo
[11] = Cmax in Sprague-Dawley rat at 31 mg/kg, po using PEG400/Solutol HS-15/water formulation; assay type: ADME, organism-based; design: dose 31 mg/kg, route oral; conditions: in vivo
[12] = AUC (0 to infinity) in Sprague-Dawley rat at 31 mg/kg, po using PEG400/Solutol HS-15/water formulation; assay type: ADME, organism-based; design: dose 31 mg/kg, time infinity, route oral; conditions: in vivo
[13] = Drug excretion in Sprague-Dawley rat urine at 33 mg/kg, po administered as suspension using HPMC formulation; assay type: ADME, organism-based; conditions: read-out: Drug excretion
[14] = Tmax in Sprague-Dawley rat at 33 mg/kg, po administered as suspension using HPMC formulation; assay type: ADME, organism-based; conditions: in vivo
[15] = AUC (0 to infinity) in Sprague-Dawley rat at 33 mg/kg, po administered as suspension using HPMC formulation; assay type: ADME, organism-based; design: dose 33 mg/kg, route oral, time infinity; conditions: in vivo
[16] = Drug excretion in Sprague-Dawley rat urine at 31 mg/kg, po using PEG400/Solutol HS-15/water formulation; assay type: ADME, organism-based; conditions: read-out: Drug excretion
in vivo = conditions: Sprague-Dawley, rat, po, 33 mg/kg
[17] = AUC (0 to infinity) in Sprague-Dawley rat at […], iv; assay type: ADME, organism-based; design: dose 2.9 mg/kg, time infinity, route intravenous; conditions: in vivo
[18] = Volume of distribution at steady state in Sprague-Dawley rat at […], iv; assay type: ADME, organism-based; conditions: in vivo, read-out: Vdss

Row | SMILES | solubility kinetic [1] [µg/mL] | solubility kinetic [2] [µg/mL] | Papp A→B at […] [3] [×10⁻⁶ cm/s] | also measured
1 | C=CCOc1ccc(F)c(C(=O)NNS(=O)(=O)c2ccccc2)c1 | 50 to 100 (≈ 143 to 285 µM) | 50 to 100 (≈ 143 to 285 µM) | – | –
2 | CCOc1cc(C)c(F)c(C(=O)NNS(=O)(=O)c2ccccc2)c1 | 12.5 to 25 (≈ 35.5 to 70.9 µM) | 12.5 to 25 (≈ 35.5 to 70.9 µM) | 65 | –
3 | CCOc1cc(C)cc(C(=O)NNS(=O)(=O)c2ccccc2F)c1 | 12.5 to 25 (≈ 35.5 to 70.9 µM) | 12.5 to 25 (≈ 35.5 to 70.9 µM) | 47 | Drug metabolism [4]: Metabolite_Notdetected; Drug metabolism [5]: Metabolite_Notdetected
4 | Cc1cc(OC(C)C)cc(C(=O)NNS(=O)(=O)c2ccccc2F)c1 | 12.5 to 25 (≈ 34.1 to 68.2 µM) | 12.5 to 25 (≈ 34.1 to 68.2 µM) | – | –
5 | Cc1cc(-c2ncccn2)cc(C(=O)NNS(=O)(=O)c2ccccc2)c1F | 50 to 100 (≈ 129 to 259 µM) | 50 to 100 (≈ 129 to 259 µM) | 77 | Tmax [6]: 0.28 h; Cmax [7]: 12.1 µM
6 | O=C(NNS(=O)(=O)c1ccccc1F)c1cccc(-n2cccn2)c1 | 50 to 100 (≈ 139 to 277 µM) | 50 to 100 (≈ 139 to 277 µM) | – | –
7 | Cc1cc(C(=O)NNS(=O)(=O)c2ccccc2F)cc(-n2cccn2)c1 | 12.5 to 25 (≈ 33.4 to 66.8 µM) | 12.5 to 25 (≈ 33.4 to 66.8 µM) | – | –
8 | Cc1cc(C(=O)NNS(=O)(=O)c2ccccc2F)cc(-c2ccco2)c1 | 6.3 to 12.5 (≈ 16.8 to 33.4 µM) | 6.3 to 12.5 (≈ 16.8 to 33.4 µM) | – | –
9 | Cc1cc(-n2nccn2)cc(C(=O)NNS(=O)(=O)c2ccccc2)c1F | 25 to 50 (≈ 66.6 to 133 µM) | 25 to 50 (≈ 66.6 to 133 µM) | 53 | –
10 | Cc1cc(-c2ccccn2)cc(C(=O)NNS(=O)(=O)c2ccccc2)c1F | 6.3 to 12.5 (≈ 16.3 to 32.4 µM) | 50 to 100 (≈ 130 to 259 µM) | 63 | –
11 | O=C(NNS(=O)(=O)c1ccccc1F)c1cccc(I)c1 | – | – | 60.4 | –
12 | O=C(NNS(=O)(=O)c1ccccc1F)c1cc(F)cc(-n2cccn2)c1 | 25 to 50 (≈ 66.1 to 132 µM) | 25 to 50 (≈ 66.1 to 132 µM) | – | –
13 | O=C(NNS(=O)(=O)c1ccccc1F)c1cccc(-c2ccccn2)c1 | 12.5 to 25 (≈ 33.7 to 67.3 µM) | 50 to 100 (≈ 135 to 269 µM) | – | –
14 | CC(C)Oc1cccc(C(=O)NNS(=O)(=O)c2ccccc2F)c1 | 50 to 100 (≈ 142 to 284 µM) | 50 to 100 (≈ 142 to 284 µM) | – | –
15 | Cc1cc(C(=O)NNS(=O)(=O)c2ccccc2F)cc(-c2ccccn2)c1 | 12.5 to 25 (≈ 32.4 to 64.9 µM) | > 100 | – | –
16 | O=C(NNS(=O)(=O)c1ccccc1F)c1cccc(-c2ccco2)c1 | – | – | 55.3 | –
17 | CCCOc1cccc(C(=O)NNS(=O)(=O)c2ccccc2F)c1 | – | – | 77.3 | –
18 | Cc1cc(-n2cccn2)cc(C(=O)NNS(=O)(=O)c2ccccc2)c1F | 6.3 to 12.5 (≈ 16.8 to 33.4 µM) | 6.3 to 12.5 (≈ 16.8 to 33.4 µM) | 48 | –
19 | O=C(NNS(=O)(=O)c1ccccc1F)c1cc(Cl)cc(-c2cccs2)c1 | – | – | 27.8 | –
20 | O=C(NNS(=O)(=O)c1ccccc1F)c1cc(F)cc(-c2ccccn2)c1 [WM-1119] | 25 to 50 (≈ 64.2 to 128 µM) | 25 to 50 (≈ 64.2 to 128 µM) | 60 | Drug excretion [8]: Bld; Cmax [9]: 2.9 µM; Tmax [10]: 1 h; Cmax [11]: 14 µM; AUC(0-inf) [12]: 38 µM·h; dose excreted [13]: 0.009%; Tmax [14]: 1 h; Drug metabolism [4]: Metabolite_Notdetected; AUC(0-inf) [15]: 13 µM·h; dose excreted [16]: 0.078%; bioavailability (in vivo): 18%; AUC(0-inf) [17]: 6.2 µM·h; Drug metabolism [5]: Metabolite_Notdetected; Vd [18]: 0.72 L/kg
